One data set has as its system SUV39H1. Put plainly: quantitative PCR of SUV39H1 expression (RNA) after antisense oligonucleotide transfection. The class given is cell-based, human. The settings on record: MDA-MB-231 cells, 7 hours after transfection, compared to control (reverse) oligonucleotide (100%). From the text:
First, the antisense (SEQ ID NO: 4) to the full-length sequence shown by SEQ ID NO: 3 was designed. Thereafter, phosphorothioated oligonucleotide was synthesized, purified on HPLC and used for the transfection test (Amersham Pharmacia Biotech). For control oligonucleotide, a reverse sequence (SEQ ID NO: 5) of the base sequence represented by SEQ ID NO: 4 was likewise phosphorothioated, purified on HPLC and used for the test (Amersham Pharmacia Biotech).
Breast cancer cell line MDA-MB-231 (In Vitro, 14 (11), 911-915, 1978, purchased from ATCC) was used as cells to be tested and on the day before transfecting the oligonucleotide, the cells were plated in 18×10^3 on a 24-well plate (manufactured by Falcon). To transfect the oligonucleotide, OligofectAMINE (manufactured by Invitrogen) was used to follow its protocol. In accordance with the protocol of RNeasy mini kit (manufactured by Qiagen), RNA was extracted 7 hours after the transfection and cDNA was prepared using TaqMan Reverse Transcription Reagents (manufactured by Applied Biosystems). Using 2 primers (SEQ ID NO: 6 and SEQ ID NO: 7) and probe (SEQ ID NO: 8; Amersham Pharmacia Biotech), quantitative PCR was carried out by ABI PRISM TM 7700 Sequence Detector (manufactured by Applied Biosystems). […]

The subject of data set [1] is Breast cancer cell line MDA-MB-231. Put plainly: apoptosis by cell death detection ELISA after antisense oligonucleotide transfection. The format is cell-based, human. The note with it: MDA-MB-231 cells, 3 days after transfection, compared to control (100%).

With “antisense: phosphorothioated antisense oligonucleotide (SEQ ID NO: 4) to the full-length SUV39H1 sequence shown by SEQ ID NO: 3 (antisense ATGCGTCCCAGATGGCTGCG; all phosphorothioate, sugars by position and methylation of C not given here)”, the “expression (RNA) of SUV39H1” value with SUV39H1 was 70%. The substance further returned an apoptosis in data set [1] of 213%.
